Measured values taken from patent publication US20100016388A1, “Salts of a Selective Beta-2 Andrenoceptor Agonist” (priority 2007, published 2010).
Counter-ions that a name gives are not always drawn.

Target: T1, Adrenergic β2 (Homo sapiens, UniProt P07550)
T1 construct: Adherent H292 cells were removed from tissue culture flasks; endogenous in cells; host or cells: H292 cells
Test: Adrenergic β2 mediated cAMP production in H292 cells (AlphaScreen)
Assay type: cell-based
Conditions: Intrinsic Activity as a fraction relative to the maximum activity determined for formoterol
Procedure: Adrenergic β2 Mediated cAMP Production
H292 cells were grown in 225 cm2 flasks incubator at 37° C., 5% CO2 in RPMI medium containing, 10% (v/v) FBS (foetal bovine serum) and 2 mM L-glutamine.
Adherent H292 cells were removed from tissue culture flasks by treatment with Accutase™ cell detachment solution for 15 minutes. Flasks were incubated for 15 minutes in a humidified incubator at 37° C., 5% CO2. Detached cells were re-suspended in RPMI media (containing 10% (v/v) FBS and 2 mM L-glutamine) at 0.05×10^6 cells per mL. 5000 cells in 100 μL were added to each well of a tissue-culture-treated 96-well plate and the cells incubated overnight in a humidified incubator at 37° C., 5% CO2. The culture media was removed and cells were washed twice with 100 μL assay buffer and replaced with 50 μL assay buffer (HBSS solution containing 10 mM HEPES pH7.4 and 5 mM glucose). […]
The concentration of cAMP (cyclic adenosine monophosphate) in the cell lysate was determined using AlphaScreen™ methodology. […] The AlphaScreen™ signal was measured using an EnVision spectrophotometer (Perkin-Elmer Inc.) with the recommended manufacturer's settings. cAMP concentrations were determined by reference to a calibration curve determined in the same experiment using standard cAMP concentrations. […] Intrinsic Activity was expressed as a fraction relative to the maximum activity determined for formoterol in each experiment.

T1 sequence (P07550 whole entry): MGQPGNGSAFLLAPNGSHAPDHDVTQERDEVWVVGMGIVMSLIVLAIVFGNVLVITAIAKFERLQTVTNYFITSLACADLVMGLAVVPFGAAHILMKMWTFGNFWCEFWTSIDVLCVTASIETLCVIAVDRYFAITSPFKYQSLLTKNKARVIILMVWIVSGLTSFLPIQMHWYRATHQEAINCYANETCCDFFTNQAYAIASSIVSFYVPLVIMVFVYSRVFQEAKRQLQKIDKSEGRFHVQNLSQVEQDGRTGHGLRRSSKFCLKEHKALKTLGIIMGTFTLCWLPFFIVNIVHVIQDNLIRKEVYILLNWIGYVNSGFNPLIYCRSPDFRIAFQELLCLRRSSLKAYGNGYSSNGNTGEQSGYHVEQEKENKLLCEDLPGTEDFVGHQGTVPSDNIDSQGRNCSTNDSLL

O=c1[nH]c2c(O)ccc([C@@H](O)CNCCSCCCNCCc3ccccc3Cl)c2s1 [Compound A, 7-[(1R)-2-({2-[(3-{[2-(2-Chlorophenyl)ethyl]amino}-propyl)thio]ethyl}amino)-1-hydroxyethyl]-4-hydroxy-1,3-benzothiazol-2(3H)-one dihydrobromide]
β2 Int Act: 0.8
